# Patent publication US20170209579A1, “NON-INVASIVE RADIOFREQUENCY FIELD TREATMENT FOR CANCER THERAPY” (Baylor College of Medicine, priority 2014, published 2017)
# What was measured:
# [1] = system: subcutaneous pancreatic tumors; assay: Tumor size in mice bearing subcutaneous pancreatic tumors, RF + Gemcitabine; format: in vivo, mouse; settings: Gemcitabine 70 mg/Kg intravenously once per week; higher power RF system (0-1200 W); n=5
# Method: (13A) Mice bearing subcutaneous pancreatic tumors were exposed to either RF, Gemcitabine, or RF+Gemcitabine once per week until the control group tumor size became a burden (n=5 in each group). The RF system used can be seen in (13B) and is a higher power version (0-1200 W) of the portable RF system. RF conditions were similar to that shown in (13B). Gemcitabine was given intravenously at a dosage of 70 mg/Kg. […] (13A) Mice bearing subcutaneous pancreatic tumors were exposed to non-invasive RF, Gemcitabine, or non-invasive RF+Gemcitabine once per week until the control group tumor size became a burden (n=5 in each group). The non-invasive RF system used can be seen in (13B) and is a higher power version (0-1200 W) of the portable RF system. non-invasive RF conditions were similar to that shown in FIG. 13B. Gemcitabine was given intravenously at a dosage of 70 mg/Kg.
# [2] = system: γ-H2AX foci in Hep3B cells; assay: γ-H2AX foci in Hep3B cells (immunocytochemistry, confocal); format: cell-based, human
# Method: Approximately 50,000 cells were seeded in each well of a 12-well plate and grown on circular #1.5 cover slips (Electron Microscopy Sciences, Hatfield, Pa.). After 24 hours, cells were exposed to various treatment conditions as described herein. At the end of treatment, cells were fixed, permeabilized, blocked, labeled with primary antibody, and then with secondary antibody in consecutive steps. For confocal imaging, Fluoview—FV1000 Olympus Confocal Microscope (Center Valley, Pa.) was used.
# For immunocytochemistry assay, an indirect immunofluorescence approach was used. Circular #1.5 cover slips (Electron microscopy sciences, Hatfield, Pa.) were placed in 12-well plates and sterilized using a 20-minute UV exposure. Cells from an exponentially growing culture were counted and approximately 50,000 cells were seeded in each well of a 12-well plate. Adherent sub-confluent monolayers were observed growing on the cover slip 24 hours later. At this point, cells were exposed to various treatment conditions as described herein. At the end of treatment, immunolabeling of proteins being studied was performed. Cells were fixed, permeablized, blocked, labeled with primary antibody and then with secondary antibody in consecutive steps. Between each step, cells were washed with PBS three times for 5 minutes each time on a leveled shaker at 50 RPM. Cells were fixed with 1% paraformaldehyde in PBS (w/v) for 30 minutes. Permeablization was performed using 0.3% (v/v) Triton-100 and 0.125% (w/v) CHAPS (3-[(3-Cholamidopropyl) dimethylammonio]-1-propanesulfonate) dissolved in PBS for 15 minutes. […] Primary and secondary antibodies were diluted in the blocking buffer. Incubation with primary antibody was performed over night at 4° C. Secondary antibody incubations were performed for 2 hours at room temperature. […]
# The slides were sealed with a conventional nail polish hardener and stored at 4° C. until imaging. […] Exposure settings were set to maximize dynamic range initially and then kept constant across multiple samples to allow quantitative comparisons. […]
# shMre11 Hep3B cell line = assay: Clonogenic assay, Mre11 knockdown (shMre11) Hep3B cell line; format: cell-based, human
# Excerpt: For generating an Mre11-knockdown cell line, GPIZ lentiviral shRNA (Open biosystems, Lafayette, Colo.) was used according to the supplied protocol. In order to generate lentivirus, Hep3B cells were transfected in separate experiments with three random clones from a,shRNA library against Mre11 or a control shRNA together with a packaging plasmid (Trans-lentiviral packaging system, Open biosystems, Lafayette, Colo.) using lipofectamine 2000 (Invitrogen, Life technologies, Grand Island, N.Y.). Approximately 72 hours later, cells were observed under a microscope to express GFP, which is a marker of expression of shRNA against Mre11. Relative mre11 knockdown was confirmed by western blot analysis.
# Clonogenic assay estimates single-cell reproductive viability by measuring the ability of a single cell to form a colony of 50 cells or more. Clonogenic assay in this study was performed as described previously (Franken et al., 2006). Briefly, cancer cells from an exponentially growing, sub-confluent culture were trypsinized and harvested. Approximately 200 cells were counted and plated in each well of a 6-well plate. Approximately 12 hours later, the cells were adherent and treatment conditions were introduced as described herein. […] The number of colonies in each well was counted using a colony counting grid. […]
smiles,measurement,setting,value
"Nc1ccn([C@@H]2O[C@H](CO)[C@@H](O)C2(F)F)c(=O)n1 [gemcitabine, 2′,2′-difluoro 2′-deoxycytidine]","tumor size, Gemcitabine+RF group compared to other groups",[1],clear reduction in tumor size
same,"persistence of γ-H2AX positive cells, gemcitabine and hyperthermia versus either alone","[2]; gemcitabine 100 nM 24 hours, last two hours 42.5° C.",persisted for a longer duration
same,relative mean (±SD) γ-H2AX pixels per cell,[2]; gemcitabine alone,1.0±0.26
same,relative mean (±SD) γ-H2AX pixels per cell,[2]; hyperthermia immediately followed by gemcitabine,1.0±0.20
same,"sensitivity to gemcitabine, shMre11 versus shControl cell line",shMre11 Hep3B cell line; clonogenic survival,more sensitive to gemcitabine
same,thermal enhancement of gemcitabine toxicity,shMre11 Hep3B cell line; shControl versus shMre11 cells,noted for shControl but not shMre11 cells
